# Results taken from US9040715B2 (priority 2008, dated 2015).
# How the values were obtained:
# Candida albicans (CAF-2) = assay: Anti-fungal/anti-yeast activity: MIC50 (broth microdilution) and MFC; assay type: cell-based
# Description: (§1) Fluconazole, an ergosterol inhibitor, and the beta-1,3-glucan inhibitor micafungin served as controls (See Tables 1-8).
# (§2) The minimum inhibitory concentrations resulting in 50% growth inhibition (MIC50) of […] Candida species (C. albicans, C. tropicalis and C. glabrata, C. lusitaniae, C. parapsilosis, and C. apicola) as well as Aspergillus fumigatus to a set of novel synthetic compounds was determined in accordance with the guidelines in CLSI document M27-A2 (Clinical and Laboratory Standards Institute; Wayne, Pa.). The total volume of cells and drug was 100 μL per microtiter well, and each drug was diluted in RPMI to achieve final concentrations of 0.2-100 μg/ml. Uninoculated cultures were used as a reference standard. Stock inoculum suspensions were prepared from 24 hour cultures on YPD (yeast extract/peptone/dextrose) media at 30° C. For MIC determinations, an inoculum of 1.0×10^3 cells of Candidia and 2.0×10^3 cells of Aspergillus per well were used, and cells in diluted drugs were prepared in RPMI-1640 medium. MICs were determined both visually and spectrophotometrically at 24 hours and 48 h at 550 nm using a micro plate reader. The MIC50 endpoint was measured as the lowest drug concentration resulting in a reduction of growth of 50% or more compared with growth of the control.
# (§3) The minimum fungicidal concentrations (MFCs) were determined for each drug-isolate-medium combination as follows. After 48 hours of incubation, 100 μL of each drug-isolate-medium combination (2 plates) was subcultured onto YPD plates (100 μL of solution was spread over the YPD plate). […] The plates were then incubated at 30° C. for 48 hours.
# (§4) The in vitro fungicidal activities (MFCs) were determined for each drug-isolate-medium combination as follows. After 48 hours of incubation, 10 μL each drug-isolate-medium combination was spotted onto YPD plates (10 μL of each well is spotted sequentially with positive and negative control wells). […] The plates were then incubated at 30° C. for 48 hours.
# Candida apicola = assay: as above; assay type: cell-based
# Description: as §1, §2, §3, §4
# Candida glabrata = assay: as above; assay type: cell-based
# Description: as §1, §2, §3, §4
# Candida lusitaniae = assay: as above; assay type: cell-based
# Description: as §1, §2, §3, §4
# Candida tropicalis = assay: as above; assay type: cell-based
# Description: as §1, §2, §3, §4
# Candidia parapsilosis = assay: as above; assay type: cell-based
# Description: as §1, §2, §3, §4
# [1] = test system: Saccharomyces cerevisiae (YPH501); assay: as above; assay type: cell-based
# C. albicans Mutants = assay: MIC50 in C. albicans mutant strains; assay type: cell-based; settings: Candida albicans
# Description: as §2
# The MIC50 of Compounds I-1, I-2, and I-5 in several mutant strains of Candida albicans, including fluconazole resistant clinical strains, was determined according to the methods described in Example 1 (see Table 9). The activity of Compound I-1 against fluconazole resistant strains was further explored (see Table 10). In Table 10, Strain #1 is a fluconazole sensitive Candida albicans strain; Strain #17 is a fluconazole resistant Candida albicans strain; C. albicans CS#01 is a first clinical strain; C. albicans CS#02 is a second clinical strain.
# Huh7 cells = assay: Neutral red uptake assay (cytotoxicity); assay type: cell-based, human
# Text: The neutral red uptake assay is a cytotoxicity test that is based on the ability of viable cells to incorporate and bind the supra-vital dye neutral red in the lysosomes. This weakly cationic dye penetrates cell membranes by non-ionic passive diffusion and concentrates in the lysosomes, where it binds by electrostatic hydrophobic bonds to anionic and phosphate groups of the lysosomal matrix. The dye is then extracted from the viable cells using an acidified ethanol solution, and the absorbance of the solubilized dye is read. When the cell dies or the pH gradient is reduced, the dye is not retained and consequently, the amount of retained dye is proportional to the number of viable cells. Most primary cells and cell lines can be used for this method. The HepG2 and Huh7, two human hepatoma cell lines, were used for this study. The cells were seeded in 96-well tissue culture plates and treated for 48 hours with the compounds. The plates were then incubated for 2 hours with a medium containing neutral red. The cells were subsequently washed, the dye was extracted in each well, and the absorbance was read using a spectrophotometer (FIG. 3 and Table 11).
# Huh7 or HepG2 cell line = assay: MTT assay (cytotoxicity); assay type: cell-based, human; settings: 24 hours and 48 hours
# Description: The MTT assay is a colorimetric assay that measures the reduction of yellow 3-(4,5-dimethylhiazol-2-yl)-2,5-diphenyl tetrazolium bromide (MTT) by mitochondrial succinate dehydrogenase. The MTT enters the cells and passes into the mitochondria where it is reduced to an insoluble, dark purple, formazan product. The cells are then solubilized with an organic solvent (e.g., isopropanol) and the released, solubilized formazan reagent is measured spectrophotometrically. Since reduction of MTT can only occur in metabolically active cells, the level of activity is a measure of the viability of the cells.
# Cells of the Huh7 or HepG2 cell line were seeded in a 96 well plate. The plate was incubated overnight at 37° C. in a humidified incubator, 5% CO2. The test compounds were added to the plate. Different concentrations of drug were tested in triplicate along with a negative control. The final volume was adjusted to 100 μl per well. The plate was incubated overnight at 37° C. in a humidified incubator, 5% CO2. After 24 hours and 48 hours, MTT reagent (5 mg/ml, 10 μl/100 μl per well of the 96 well plate) was added and incubated at 37° C. for 3 hours. After 3 hours, 100 μl of the DMSO solution was added to each well and the plate was rocked at room temperature for 1 hour. The plate was then read on a plate reader at […].
# [2] = Saccharomyces cerevisiae (YPH501)
compound,measurement,setting,value
O=C(Cn1sc2ccccc2c1=O)NNC(=O)c1cccc(Cl)c1 [Compound I-5],Activity (fungicidal/fungistatic),Candida albicans (CAF-2),fungicidal (An MFC/MIC ratio of less than four indicates that the compound is fungicidal)
same,MFC,Candida albicans (CAF-2),12.5 µg/mL
same,Ratio MFC/MIC,Candida albicans (CAF-2),2
same,MIC,Candida albicans (CAF-2); read-out: MIC-50,6.4 µg/mL
same,Activity (fungicidal/fungistatic),Candida apicola; Candida apicola,fungicidal (An MFC/MIC ratio of less than four indicates that the compound is fungicidal)
same,MIC-50,Candida apicola; Candida apicola,6.4 µg/mL
same,Ratio MFC/MIC,Candida apicola; Candida apicola,2
same,MFC,Candida apicola; Starmerella apicola,12.5 µg/mL
same,Activity (fungicidal/fungistatic),Candida glabrata; Candida glabrata,fungicidal (An MFC/MIC ratio of less than four indicates that the compound is fungicidal)
same,Ratio MFC/MIC,Candida glabrata; Candida glabrata,1
same,MFC,Candida glabrata; Nakaseomyces glabratus,6.4 µg/mL
same,MIC,"Candida glabrata; Nakaseomyces glabratus, read-out: MIC-50",6.4 µg/mL
same,Activity (fungicidal/fungistatic),Candida lusitaniae; Candida lusitaniae,fungicidal (An MFC/MIC ratio of less than four indicates that the compound is fungicidal)
same,Ratio MFC/MIC,Candida lusitaniae; Candida lusitaniae,2
same,MFC,Candida lusitaniae; Clavispora lusitaniae,6.4 µg/mL
same,MIC,"Candida lusitaniae; Clavispora lusitaniae, read-out: MIC-50",3.2 µg/mL
same,Activity (fungicidal/fungistatic),Candida tropicalis,fungicidal (An MFC/MIC ratio of less than four indicates that the compound is fungicidal)
same,MFC,Candida tropicalis,12.5 µg/mL
same,Ratio MFC/MIC,Candida tropicalis,2
same,MIC,Candida tropicalis; read-out: MIC-50,6.4 µg/mL
same,MFC,Candidia parapsilosis,12.5 µg/mL
same,Activity (fungicidal/fungistatic),Candidia parapsilosis; Candidia parapsilosis,fungicidal (An MFC/MIC ratio of less than four indicates that the compound is fungicidal)
same,Ratio MFC/MIC,Candidia parapsilosis; Candidia parapsilosis,2
same,MIC,Candidia parapsilosis; read-out: MIC-50,6.4 µg/mL
same,MFC,[1]; Saccharomyces cerevisiae,3 µg/mL
same,Activity (fungicidal/fungistatic),[1]; [2],fungicidal (An MFC/MIC ratio of less than four indicates that the compound is fungicidal)
same,Ratio MFC/MIC,[1]; [2],1
same,MIC,"[1]; Saccharomyces cerevisiae, read-out: MIC-50",3 µg/mL
same,MIC50,C. albicans Mutants; C. albicans strain CAF-2,6 µg/mL
same,MIC50,C. albicans Mutants; C. albicans strain CHK11,6 µg/mL
same,MIC50,C. albicans Mutants; C. albicans strain CHK21,6 µg/mL
same,MIC50,C. albicans Mutants; C. albicans strain CHK23,6 µg/mL
same,MIC50,C. albicans Mutants; C. albicans strain GOA31,6 µg/mL
same,MIC50,C. albicans Mutants; C. albicans strain GOA32,6 µg/mL
same,Percentage Viability,Huh7 cells; 3.3 μg/mL (approx 1X MIC),>100%
same,Percentage Viability,Huh7 cells; 10 μg/mL (approx 3X MIC),>100%
same,Percentage Viability,Huh7 cells; 33 μg/mL (approx 10X MIC),>100%
same,Percentage Viability,Huh7 cells; 100 μg/mL (approx 30X MIC),92%
same,Toxicity to mammalian cell lines (MTT assay),Huh7 or HepG2 cell line,minimally toxic
